This note sets out measurements from patent US10479819B2 (priority 2014, dated 2019).

One data set addresses T1, human GLP-1R (Homo sapiens, UniProt P43220).
T1 construct: expressed in transfected cells
Kind of data set: In vitro activity on GLP-1R, CRE-luciferase HEK-293 cells. In kind it is cell-based. Put shortly: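 HEK-293 cells stably expressing human GLP-1R or human GCGR with CRE-luciferase reporter, 5000 cells/well in DMEM/10% FBS, exposed to compound. Luminescence read after luciferase reagent; EC50 taken from concentration-response curves.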

The next data set concerns the target T2, human GCGR (Homo sapiens, UniProt P47871).
T2 construct: expressed in transfected cells
Kind of data set: In vitro activity on GCGR, CRE-luciferase HEK-293 cells. As to conditions: read-out: GCGR (EC50). In kind it is cell-based. The protocol: 5000 of HEK-293 cells, which are used in CRE-luciferase system and express human GCGR or GLP-1R stably, were inoculated into 384 well plates according to […] DMEM/10% FBS media/well. […] After incubation, […] of luciferase reagent was added directly to each plate and mixed gently for 2 minutes. The plates were placed into an Elmer Perkin plate reader for reading. Concentration curve of the compound was made by drawing software Prism 5, and the EC50 value was calculated.

The nature of data set [1]: Pharmacokinetic analysis after IV or SC administration in male CD1 mice. As to conditions: mouse, in vivo. The protocol:
Pharmacokinetic parameters of the drugs were calculated by methods of model dependence (for data obtained from IV) and model independence (data obtained from SC).

The test system of the next data set is male C57B1/6J mice. Kind of data set: Oral glucose tolerance test in male C57B1/6J mice. In kind it is in vivo. The note with it: 250 μg/kg.
For a further data set, the system named is DIO mice. Kind of data set: Body weight reduction in DIO (obese) mice. In kind it is in vivo. The note with it: 250 μg/kg SC daily, day 11 to day 30, DIO mice. The source says: Forty 25-week-old DIO mice (Nanjing University model animal research center) were randomly divided into five groups (compound 4, 5, 6, 7, and normal saline group), 8 in each group, having no difference in the basis weight of each group.

T1 sequence (P43220 24-463): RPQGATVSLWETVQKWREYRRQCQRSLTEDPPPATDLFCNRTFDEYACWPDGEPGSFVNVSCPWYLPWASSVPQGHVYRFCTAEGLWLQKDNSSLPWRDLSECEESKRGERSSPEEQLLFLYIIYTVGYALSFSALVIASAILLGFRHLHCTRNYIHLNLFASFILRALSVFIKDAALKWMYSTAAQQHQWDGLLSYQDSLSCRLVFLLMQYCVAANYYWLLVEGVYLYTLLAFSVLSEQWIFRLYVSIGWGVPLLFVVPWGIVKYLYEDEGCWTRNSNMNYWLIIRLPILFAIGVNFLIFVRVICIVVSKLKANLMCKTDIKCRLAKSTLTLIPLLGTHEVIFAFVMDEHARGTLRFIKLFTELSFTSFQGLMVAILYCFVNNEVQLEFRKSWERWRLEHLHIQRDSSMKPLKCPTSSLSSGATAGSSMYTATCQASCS
T2 sequence (P47871 26-477): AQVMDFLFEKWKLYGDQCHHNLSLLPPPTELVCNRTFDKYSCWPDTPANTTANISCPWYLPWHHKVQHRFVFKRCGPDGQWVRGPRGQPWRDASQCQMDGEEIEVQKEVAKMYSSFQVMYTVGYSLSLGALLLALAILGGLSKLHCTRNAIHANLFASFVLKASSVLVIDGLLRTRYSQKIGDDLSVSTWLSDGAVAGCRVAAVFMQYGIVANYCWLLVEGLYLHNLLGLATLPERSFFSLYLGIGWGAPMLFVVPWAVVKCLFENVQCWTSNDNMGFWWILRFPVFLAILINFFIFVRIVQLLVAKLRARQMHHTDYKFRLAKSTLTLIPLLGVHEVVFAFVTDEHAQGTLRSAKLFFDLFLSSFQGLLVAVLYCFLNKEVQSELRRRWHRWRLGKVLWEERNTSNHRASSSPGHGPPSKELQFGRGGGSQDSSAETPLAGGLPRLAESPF

The EC50 is the midpoint of the concentration-response curve. What is called Tmax is the time at which the peak concentration occurs. Usually half-life stands for the time in which the quantity being followed falls by half. The low end stands for rapid decline, the high end for slow decline. As for `CCCCCCCCCCCCCCCC(=O)NCCOCCOCCC(=O)NCCOCCOCCC(=O)NCCCC[C@H](NC(=O)[C@H](CC(=O)O)NC(=O)[C@H](CO)NC(=O)[C@@H](NC(=O)[C@H](Cc1ccccc1)NC(=O)[C@@H](NC(=O)CNC(=O)[C@H](CCC(N)=O)NC(=O)[C@@H](CO)NC(=O)[C@@H](N)Cc1c[nH]cn1)[C@@H](C)O)[C@@H](C)O)C(=O)N[C@@H](CO)C(=O)N[C@@H](CCCCN)C(=O)N[C@@H](Cc1ccc(O)cc1)C(=O)N[C@@H](CC(C)C)C(=O)N[C@@H](CC(=O)O)C(=O)NC(C)(C)C(=O)N[C@@H](CCCNC(=N)N)C(=O)N[C@@H](CCCNC(=N)N)C(=O)N[C@@H](C)C(=O)N[C@@H](CCC(N)=O)C(=O)N[C@@H](CC(=O)O)C(=O)N[C@@H](Cc1ccccc1)C(=O)N[C@H](C(=O)N[C@@H](CCC(N)=O)C(=O)N[C@@H](Cc1c[nH]c2ccccc12)C(=O)N[C@@H](CC(C)C)C(=O)N[C@@H](CCSC)C(=O)N[C@@H](CC(N)=O)C(=O)N[C@H](C(=O)NCC(=O)NCC(=O)N1CCC[C@H]1C(=O)N[C@@H](CO)C(=O)N[C@@H](CO)C(=O)NCC(=O)N[C@@H](C)C(=O)N1CCC[C@H]1C(=O)N1CCC[C@H]1C(=O)N1CCC[C@H]1C(=O)N[C@@H](CO)C(N)=O)[C@@H](C)O)C(C)C` [Compound 5], the GLP-1R/GCGR at human GLP-1R (ratio of EC50 GLP-1R to EC50 GCGR) worked out at 0.1. Also, the EC50 on human GLP-1R (read-out: GLP-1R (EC50)) is 0.06 nM. Besides, on human GCGR, the EC50 was 0.43 nM. In addition, the clinical adverse effect entry in data set [1] was “no clinical adverse effect”. In addition, in data set [1] (iv), the Tmax was about 12 h and the half-life lay in the range of 4 to 6 h. For the same compound, the peak time result in data set [1] (sc) is recorded as “more than 12 hours”. Moreover, in the data set on male C57B1/6J mice (P<0.05), the “AUC of blood glucose in all four OGTT curve periods (0-480 min) compared with carrier (PBS)” value is recorded as “significantly decreased”. In addition, in the data set on male C57B1/6J mice (male C57B1/6J mice), the “effect on oral glucose tolerance” value is “significantly reduced the oral glucose tolerance”. Besides, the weight loss result in the data set with DIO mice is given as “about 20%”. Further, the “body weight compared with normal saline group” value in the data set on DIO mice (P<0.05) was “significantly lower”.
